Read-outs that look alike come from different tables or passages of the source.
How the values were obtained:
[1] = system: P. aeruginosa PA14 col^R 5 (colistin-resistant strain); experiment: microbe, parasite or virus in culture; type: cell-based; conditions: for IC90: read-out: IC90, synergy with colistin (8 μg/ml), minimum concentration causing at least 90% growth inhibition; for antibacterial activity per se: in the absence of colistin; for inhibition of bacterial growth in the presence of colistin: colistin 8 μg/ml
Method: The compounds identified by in silico screening were tested for their antibacterial activity (in the absence of colistin) and for their synergistic or adjuvant activity with colistin against a colistin-resistant strain of P. aeruginosa grown in the absence or presence of a sub-inhibitory concentration of colistin (8 μg/ml).
This strain over-expresses the am genes responsible for the modification of lipopolysaccharide by the addition of L-amino-arabinose.
The strain was grown in Mueller-Hinton (MH) medium for 8 hours, and inoculated at a cell density of ˜10^6/ml in MH medium supplemented or not with colistin at a concentration of 16 μg/ml. […] The microtitration plates were incubated at 37° C. without stirring for 24 hours. Bacterial growth was assessed by measuring absorbance at 600 nm (A600) in a microplate reader (Victor 2^V, Perkin-Elmer). […] For each compound three independent experiments were conducted, and the averages of the values obtained in the three experiments are considered to determine the values of IC50 e IC90.

[2] = system: 16HBE cells (human epithelial cells of bronchial origin); experiment: Cell viability test (MTT reduction);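 also: formazan absorbance at 570 nm after MTT reduction, corrected for cell-free blank wells, reported relative to untreated cells, from duplicate wells over three independent repeats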
Method: The cytotoxic potential of the compounds was evaluated on cell cultures in vitro. […] The results are reported in the table as viability (%) compared to untreated cells (Table 4).
To evaluate the cytotoxic potential of the compounds under examination, the MTT (3-(4,5-dimethylthiazol-2-yl)-2,5-diphenyltetrazolium) reduction test, commonly used to monitor cell viability was used following the exposure to potentially cytotoxic agents. The essay is based on the reduction of MTT to formazan, a compound that assumes a blue colour which can be evaluated by spectrophotometric reading at a wavelength of 570 nm. For the essay we used the 16HBE cell line. […] Each test was performed in duplicate and three independent replicas were made.
Cell viability was calculated as follows:
COD570=OD570 of sample−OD570 of wells without cells (white)
Viability=100−reduction (%)
where: NT indicates the samples of cells non-threated with the compounds; T the samples of cells treated with the compounds at the different concentrations.
The mean cell viability values were calculated using the Excel mean and standard deviation functions.

[3] = Pseudomonas aeruginosa, PA14, 24 h, read-out: IC50 without colistin
[4] = read-out: IC50, synergy with colistin (8 μg/ml), PA14 ColR5, colistin 8 μg/ml (sub-inhibitory), minimum concentration causing at least 50% growth inhibition, 24 h
[5] = PA14 ColR5, colistin 8 μg/ml (sub-inhibitory), 24 h
[6] = 16HBE, 1.95 μM, 18 hours, MTT, vs untreated cells
[7] = 16HBE, 3.91 μM, 18 hours, MTT, vs untreated cells
[8] = 16HBE, 7.81 μM, 18 hours, MTT, vs untreated cells
[9] = 16HBE, 15.63 μM, 18 hours, MTT, vs untreated cells
[10] = 16HBE, 125 μM, 18 hours, MTT, vs untreated cells
[11] = 16HBE, 250 μM, 18 hours, MTT, vs untreated cells
[12] = 16HBE, 62.5 μM, 18 hours, MTT, vs untreated cells

| SMILES | IC50 [1, 3] [µM] | IC50 [1, 4] [µM] | IC90 [1, 5] [µM] | other results |
| --- | --- | --- | --- | --- |
| COC(=O)[C@]1(C)CCC[C@@]2(C)C3CC[C@@]4(C)C[C@]3(CCC21)CC4=O (single isomer, unassigned; ent-16) [SR7, methyl ester of ent-16-oxo-beyeran-19-oic acid] | > 250 | > 250 | > 250 | – |
| O=C1c2c(O)cccc2[C@H]([C@@H]2O[C@H](CO)[C@@H](O)[C@H](O)[C@H]2O)c2cc(CO)cc(O)c21 [BBN36, (10S)-1,8-dihydroxy-3-(hydroxymethyl)-10-[(2S, 3R, 4R, 5S, 6R)-3,4,5-trihydroxy-6-(hydroxymethyl)oxan-2-yl]-10 H-anthracen-9-one] | > 250 | > 250 | > 250 | – |
| O=C(/C=C/c1ccc(O)c(O)c1)O[C@@H]1C[C@](O)(C(=O)O)C[C@@H](O)[C@H]1O [BBN53, (1S, 3R, 4R, 5R)-3-[(E)-3-(3,4-dihydroxyphenyl)prop-2-enoyl]oxy-1,4,5-trihydroxycyclohexane-1-carboxylic acid] | > 250 | > 250 | > 250 | – |
| O=C(CCc1ccc(O)cc1)c1c(O)cc(O)cc1O [BBN101, 3-(4-hydroxyphenyl)-1-(2,4,6-trihydroxyphenyl)propan-1-one] | > 250 | > 250 | > 250 | – |
| COc1cc(O)c(O)c(CC=C(C)C)c1-c1coc2cc(O)cc(O)c2c1=O [BBN118, 3-[3,4-dihydroxy-6-methoxy-2-(3-methylbut-2-enyl)phenyl]-5,7-dihydroxycromen-4-one] | > 250 | – | > 250 | – |
| CC1(C)C=Cc2c(cc(O)c3c(=O)c4cc5c(c(O)c4oc23)OC(C)(C)C=C5)O1 [BBN119, 11,22-dihydroxy-7,7,19,19-tetramethyl-2,8,20-trioxapentacyclo [12.8.0.03,120,04,90,016,21]docosa-1(14), 3(12), 4(9), 5, 10, 15, 17, 21-octaen-13-one] | > 250 | > 250 | > 250 | – |
| C=CC(C)(C)c1c2c(c3oc4c(O)c(O)ccc4c(=O)c3c1O)C(C)(C)C(C)O2 (stereo not drawn) [BBN120, rheediaxanthone B] | > 250 | – | > 250 | – |
| Cc1nccc2c1[nH]c1ccccc12 [BBN135, 1-methyl-9H-pyrido[3,4-b]indole] | > 250 | > 250 | > 250 | – |
| COC(=O)C1=CO[C@@H](O[C@@H]2O[C@H](CO)[C@@H](O)[C@H](O)[C@H]2O)[C@@H]2[C@@H](C)[C@@H](O)C[C@H]12 [BBN139, methyl (1S, 4aS, 6S, 7R, 7aS)-6-hydroxy-7-methyl-1-[(2 S, 3 R, 4 S, 5S, 6R)-3,4,5-trihydroxy-6-(hydroxymethyl)oxan-2-yl]oxy-1,4a, 5,6,7,7a-haxidrocrociclopenta [c] piran-4-carboxylate] | > 250 | > 250 | > 250 | – |
| COc1cc2ccc(=O)oc2cc1OC/C=C(\C)CCC=C(C)C [BBN146, 6-methoxy-7-O-geranyl-coumarin] | > 250 | > 250 | > 250 | – |
| CC(C)=CCc1c(O)cc2c(c1O)C(=O)[C@H](O)[C@@H](c1ccc(O)cc1)O2 [BBN147, 6-prenyl-aromadendrine] | > 250 | – | > 250 | – |
| CC(C)=CCc1c(O)c(C(=O)c2ccccc2)c(O)c2c1OC(C)(C)C=C2 [BBN148, [5,7-dihydroxy-2,2-dimethyl-8-(3-methylbut-2-enyl)cromen-6-yl]-phenylmethanone] | > 250 | > 250 | > 250 | – |
| O=C(O)c1cc(O)c2c(c1)C(=O)c1cccc(O)c1C2=O [BBN152, 4,5-dihydroxy-9,10-dioxoanthracene-2-carboxylic acid] | > 250 | > 250 | > 250 | – |
| CC(C)=CCC/C(C)=C/COc1ccc(C(=O)/C=C/c2ccccc2)cc1 [BBN154, 4′-O-geranil-calcone] | > 250 | > 250 | > 250 | – |
| C[C@]12C=C[C@@]3(CCC4[C@@](C)(CO)CCC[C@@]4(C)C3CC1)C2 (stereo partly drawn) [FDA, ent-beyer-15-en-18-ol] | > 250 | > 250 | > 250 | antibacterial activity per se [1]: none of the compounds showed antibacterial activity per se |
| C[C@]12C=C[C@@]3(CCC4[C@@](C)(COC(=O)CC(=O)O)CCC[C@@]4(C)C3CC1)C2 (stereo partly drawn) [FDM, ent-beyer-15-en-18-O-malonic acid] | > 250 | 62.5 | > 250 | inhibition of bacterial growth in the presence of colistin [1]: able to inhibit bacterial growth in the presence of colistin; antibacterial activity per se [1]: none of the compounds showed antibacterial activity per se; Average percentage of cell viability (±standard deviation) [2]: 106.63 ± 2.87%; Average percentage of cell viability (±standard deviation) [2, 6]: 102.92 ± 7.31%; Average percentage of cell viability (±standard deviation) [2, 7]: 96.70 ± 1.60%; Average percentage of cell viability (±standard deviation) [2, 8]: 97.93 ± 2.17%; Average percentage of cell viability (±standard deviation) [2, 9]: 107.42 ± 0.01%; Average percentage of cell viability (±standard deviation) ([2]; 16HBE, 31.25 μM, 18 hours, MTT, vs untreated cells): 113.17 ± 8.95%; Average percentage of cell viability (±standard deviation) [2, 10]: 100.48 ± 12.78%; Average percentage of cell viability (±standard deviation) [2, 11]: 85.01 ± 2.40% |
| C[C@]12C=C[C@@]3(CCC4[C@@](C)(COC(=O)CCC(=O)O)CCC[C@@]4(C)C3CC1)C2 (stereo partly drawn) [FDS, ent-beyer-15-en-18-O-succinic acid] | > 250 | 31.2 | > 250 | inhibition of bacterial growth in the presence of colistin [1]: able to inhibit bacterial growth in the presence of colistin; antibacterial activity per se [1]: none of the compounds showed antibacterial activity per se; Average percentage of cell viability (±standard deviation) [2]: 102.95 ± 6.74%; Average percentage of cell viability (±standard deviation) [2, 6]: 98.93 ± 5.38%; Average percentage of cell viability (±standard deviation) [2, 7]: 95.34 ± 8.28%; Average percentage of cell viability (±standard deviation) [2, 8]: 93.53 ± 2.01%; Average percentage of cell viability (±standard deviation) [2, 9]: 99.77 ± 6.58%; Average percentage of cell viability (±standard deviation) [2, 12]: 102.15 ± 3.15%; Average percentage of cell viability (±standard deviation) [2, 10]: 105.88 ± 1.31%; Average percentage of cell viability (±standard deviation) [2, 11]: 86.12 ± 3.18% |
| C=C1C[C@@]23CCC4[C@@](C)(CCC[C@@]4(C)C(=O)O)C2CC[C@]1(O)C3 (stereo partly drawn) [SR5, 13-hydroxy-kaur-16-en-19-oic acid] | > 250 | > 250 | > 250 | – |
| C[C@@]12CCC3[C@@](CCC4[C@](C)(COC(=O)C(=O)O)CCC[C@]43C)(CC1)C2 (stereo partly drawn) [SR8, ent-beyeran-19-O-oxalic acid] | > 250 | – | > 250 | Average percentage of cell viability (±standard deviation) [2]: 90.55 ± 4.17%; Average percentage of cell viability (±standard deviation) [2, 6]: 100.17 ± 14.21%; Average percentage of cell viability (±standard deviation) [2, 7]: 97.84 ± 10.19%; Average percentage of cell viability (±standard deviation) [2, 8]: 90.33 ± 4.26%; Average percentage of cell viability (±standard deviation) [2, 9]: 92.64 ± 6.57%; Average percentage of cell viability (±standard deviation) [2, 12]: 85.68 ± 6.99%; Average percentage of cell viability (±standard deviation) [2, 10]: 78.02 ± 7.46%; Average percentage of cell viability (±standard deviation) [2, 11]: 80.16 ± 2.01% |
| C[C@@]12CCC3[C@@](CCC4[C@](C)(CO)CCC[C@]43C)(CC1)C2 (stereo partly drawn) [SR9, ent-beyeran-19-ol] | > 250 | > 250 | > 250 | – |
| C[C@@]12CCC3[C@@](CCC4[C@@]3(C)CCC[C@@]4(C)C(=O)O)(CC1)C2 (stereo partly drawn) [SR10, ent-beyeran-19-oic acid] | > 250 | – | > 250 | Average percentage of cell viability (±standard deviation) [2]: 99.52 ± 9.52%; Average percentage of cell viability (±standard deviation) [2, 6]: 105.21 ± 6.73%; Average percentage of cell viability (±standard deviation) [2, 7]: 104.95 ± 6.36%; Average percentage of cell viability (±standard deviation) [2, 8]: 101.00 ± 7.12%; Average percentage of cell viability (±standard deviation) [2, 9]: 97.98 ± 1.66%; Average percentage of cell viability (±standard deviation) [2, 12]: 99.80 ± 4.30%; Average percentage of cell viability (±standard deviation) [2, 10]: 92.07 ± 5.47%; Average percentage of cell viability (±standard deviation) [2, 11]: 1.47 ± 2.29%; reduction in cell viability ([2]; 16HBE, highest concentration (250 μM), 18 hours): total reduction of cell viability |

From patent US20220259249A1, “INHIBITORS OF ANTIBIOTIC RESISTANCE MEDIATED BY ARNT” (priority 2019, published 2022)
